# From patent publication US20180050082A1, “SERPINS FOR THE TREATMENT OF NEUROINFLAMMATORY DISEASES” (Anvil Biosciences, LLC, priority 2015, published 2018)
# “Also recorded” adds a separate entry of the source.
# Tests used:
# [1] = tested on: NMO mouse model, spines (cervical, thoracic and lumbar sections); assay: Spine histopathology scores in NMO mouse model, blinded study (Example 3); assay type: in vivo, C57BL/6 mice; settings: spines collected Day 18; for Demyelination (H + E) score +/− SD: hematoxylin and eosin stained section, 4 mice per cohort
# Source text: An NMO mouse model as described above was used. Spines were collected from 4 mice per treatment cohort on Day 18 and prepared for histology. Sections from cervical, thoracic and lumbar spine regions were scored and averaged. […] Bold formatting indicates significant (p<0.05) difference of treatment compared to PBS (control).
# NMO mouse model = assay: Mouse NMO model, more severe disease (25×10^6 Th17-polarized cells), disease scores, blinded study (Example 3); assay type: in vivo, C57BL/6 mice; settings: for End Score (end disease score +/− SD): Day 17 post-transfer, AAT 2 mg or both i.p. daily Day 4 to Day 16; for End Score (end disease score +/− SD) / MMS +/− SD (mean maximum disease score) / Mean Day of Onset +/− SEM: Mpred 0.5 mg; for MMS +/− SD (mean maximum disease score) / Mean Day of Onset +/− SEM: AAT 2 mg or both i.p. daily Day 4 to Day 16 post-transfer; for Mean Day of Onset +/− SEM: 10 mice per cohort
# Protocol: 25×10^6 cells prepared as above were adoptively transferred i.p. into recipient C57BL/6 mice. Mice received PBS, Mpred (0.5 mg), AAT (2 mg), or both AAT+Mpred as daily doses administered i.p. starting on Day 4 post-transfer until Day 16 post-transfer. Ten recipient mice per cohort. […] The bold p-values indicate significant (p<0.05) differences between the treatments when compared to PBS (control).
# murine model of NMO = assay: Murine model of NMO, less severe disease (12×10^6 Th17-polarized cells), disease score (Example 2); assay type: in vivo, C57BL/6 mice; settings: FIG. 2
# Protocol: Blood-derived human A1AT was compared to Sivelestat in a murine model of NMO. A less severe disease was induced when 12×10^6 Th17-polarized cells were adoptively transferred i.p. into recipient C57BL/6 mice. To induce Th17-polarized cells, C57BL/6 mice were induced with MOG35-55/CFA. 11 days later, their spleen cells were harvested and restimulated in culture with MOG35-55 peptide (Miller et al., supra) for 3 days.
# Mice received PBS, Sivelestat (0.5 mg), or A1AT (2 mg) as daily doses administered i.p. starting on Day 5 post-transfer until Day 18 post-transfer. There were 10 recipient mice per cohort. Error bars represent SEM. Points where A1AT compared to PBS and mean disease scores were significant (p<0.05) are indicated (*).
# [2] = tested on: Neuromyelitis Optica (NMO) induced by the adoptive transfer of Th17 Experimental Autoimmune Encephalomyelitis (EAE) cells; assay: NMO induced by adoptive transfer of Th17 EAE cells (15×10^6 cells), clinical scores (Example 1); assay type: in vivo, C57BL/6 mice; settings: 2 mg A1AT in PBS i.p. daily day 5 to day 18; vs PBS; n=10 mice per group
# Source text: C57BL/6 donor mice were immunized via subcutaneous injection with MOG-35-55 peptide in complete Freund's Adjuvant. This induces Experimental Autoimmune Encephalomyelitis (EAE), an animal model for progressive multiple sclerosis. (Miller et al., Curr. Protoc. Immunol., Chapter Unit 15.1 (2007); incorporated herein by reference in its entirety). The mice were boosted […] via intraperitoneal injection with Pertussis toxin on day 0, 2, and 7 days post-immunization. Mice were sacrificed and spleens and lymph nodes collected and resuspended into single cell suspensions. Cells were cultured with MOG peptide and IL-23 to increase Th17 skewing and cultured for 3 days. Cells were harvested and approximately 15×10̂6 cells were adoptively transferred into recipient C57BL/6 mice via intraperitoneal injection. Starting day 5 for 2 weeks until day 18, mice were administered daily via intraperitoneal injection with 100 uL of PBS or A1AT (2 mg A1AT formulated in PBS). Clinical scores were measured each day at approximately the same time of day. Clinical scores measure ascending paralysis. A score of 1 is a limp tail. A score of 2 includes hind limb weakness. A score of 3 includes hind limb paralysis. A score of 4 includes forelimb weakness. A score of 5 is indicated by death. (See Miller et al.).
# [3] = tested on: spleen cells of Th17-polarized cell transplanted mice restimulated with MOG peptide; assay: Ex vivo cytokine measurements from spleen cells restimulated with MOG peptide, cytokine bead assay (Example 4); assay type: in vivo
# Protocol: Ex vivo cytokine measurements from spleen cells of Th17-polarized cell transplanted mice restimulated with MOG peptide were conducted to survey effector and memory recall responses of the immune cell compartment, primarily from T cells. Spleens were collected from 6 mice per treatment cohort on Day 18. Single cell suspensions were prepared and cultured with the indicated amounts of MOG35-55 peptide. Supernatants were collected after 3 days of culture and IL-17A, IFN-γ, IL-6, or IL-2 measured by cytokine bead assay (BD Biosciences, San Jose, Calif., Cat. No. 560485). The results in this blinded study were expressed in cytokine pg/mL+/−SEM.
Molecule,Demyelination (H + E) score +/− SD [1],Apoptotic Cells +/− SD (apoptotic cell counts) ([1]; 4 mice per treatment cohort),Inflammatory foci +/− SD (number of inflammatory foci per section >20 cells) ([1]; 4 mice per treatment cohort),End Score (end disease score +/− SD) (NMO mouse model),MMS +/− SD (mean maximum disease score) (NMO mouse model),Mean Day of Onset +/− SEM (NMO mouse model),Onset of disease (murine model of NMO; A1AT 2 mg i.p. daily Day 5 to Day 18 post-transfer),"NMO disease score (murine model of NMO; A1AT 2 mg or Sivelestat 0.5 mg i.p. daily Day 5 to Day 18 post-transfer, vs PBS)",Clinical scores (ascending paralysis) [2],"Mean disease scores over days measured (NMO mouse model; FIG. 3, 10 recipient mice per cohort, vs PBS or either treatment alone)","IL-17A ([3]; spleens Day 18, 6 mice per cohort, supernatants after 3 days culture with MOG35-55, FIG. 5A)","IFN-γ ([3]; spleens Day 18, 6 mice per cohort, supernatants after 3 days culture with MOG35-55, FIG. 5B)","IL-2 ([3]; without antigenic restimulation (0 MOG peptide), compared to Mpred alone, FIG. 5D)"
"C[C@H]1C[C@@H]2[C@H]([C@@H](O)C[C@@]3(C)[C@H]2CC[C@]3(O)C(=O)CO)[C@@]2(C)C=CC(=O)C=C12 [Mpred, methylprednisolone, reference compound]",1.2 +/− 0.3,1.3 +/− 0.9,3.0 +/− 0.9,2.25 +/− 0.42,2.95 +/− 0.44,8.5 +/− 0.4,,,,,,,
alpha-1 antitrypsin [A1AT],1.8 +/− 0.4,2.5 +/− 0.3,,3.10 +/− 0.57,3.50 +/− 0.00,8.4 +/− 0.4,delay onset of disease,reduced the NMO disease score compared to PBS (control) and was superior to Sivelestat at all days of overt signs of disease,significant improvement when compared to PBS treatment,early efficacy compared to Mpred alone and PBS (control) on Day 5 and 6 but afterwards did not show therapeutic effect,decreased the inflammatory cytokines IL-17A compared to PBS and Mpred alone; also recorded: decreased the inflammatory cytokine IL-17A when compared to PBS and Mpred alone,decreased the inflammatory cytokine IFN-γ when compared to Mpred alone,IL-2 levels were higher without antigenic restimulation (0 MOG peptide)
